This is an account of results in PMC11990103, “Anticancer Activity and Safety Profile of Novel 1-(4-Fluorophenoxyacetyl)-4-substituted Thio/Semicarbazide Derivatives” (Molecules, 2025).

The structures appear in SMILES notation.

For one series, the system named is BJ fibroblasts. Briefly: MTT cytotoxicity assay, normal cells. Format: cell-based, human. The note with it: 48 h treatment, read-out: IC50 BJ (fibroblast). Here is the method:
(§1) These cancer cell lines comprised prostate cancer (PC-3, DU-145, LNCaP), melanoma (SK-MEL28, A375, G-361), breast cancer (MCF-7, MDA-MB-231), and lung cancer (NCI-H1563). The MTT assay was carried out across a wide range of concentrations for 48 h.
(§2) The research was conducted on one primary cell line: BJ (fibroblast) and four types of cancerous ones: three prostate cancer cell lines (PC-3, DU-145, LNCaP); 3 Melanoma cell lines (MEL-28, A375, G-361); 2 breast cancer cell lines (MCF-7, MDA-MB-23) and one lung cancer cell line (NCI-H1563). All cell lines were obtained from the American Type Culture Collection (ATCC, Manassas, VA, USA) and were grown in media (Corning, New York, NY, USA) according to ATCC guidelines. The culture media was enriched with 10% heat-inactivated fetal bovine serum (Life Technologies, Carlsbad, CA, USA) and antibiotics: penicillin (100 units) and streptomycin (100 μg/mL) from Sigma-Aldrich (St. Louis, MO, USA). The cells were incubated at 37 °C with 5% CO2 in air.
(§3) The cytotoxic analysis of thiosemicarbazides (TSC) (AB1–AB6) and semicarbazides (SC) (AB7–AB12) was conducted in various concentrations. […] The cells were treated with compounds or DMSO as a vehicle in control cultures for 48h. IC50 values were determined using the AAT Bioquest IC50 calculator (AAT Bioquest, Inc., Pleasanton, CA, USA, Quest Graph™ EC50 Calculator. https://www.aatbio.com/tools/ec50-calculator) (accessed on 7 October 2024).
(§4) The cytotoxic activity of the thiosemicarbazides and semicarbazides was measured using the MTT colorimetric assay (MTT Cell Proliferation Assay Kit—Invitrogen, Waltham, MA, USA). The cells were seeded in the 96-well plates at a density of 1.5 × 10^5 cells/mL. After reaching 70–80% of confluence, the tested compounds in a wide range of concentrations were added. Plates were incubated for 48 h at 37 °C in 5% CO2 air. Then, […] tetrazolium salt (3-(4,5-dimethylthiazol-2-yl)-2,5-diphenyltetrazolium bromide)—MTT reagent (0.5 mg/mL) dissolved in PBS was added to each well for 4 h. The MTT solution was then removed from above the water-insoluble purple formazan crystals, which were then dissolved in DMSO (dimethyl sulfoxide, […]; POCH, Gliwice, Poland). The absorbance value of obtained solutions was measured using a PowerWave ™ microplate spectrophotometer (Bio-Tek Instruments, Winooski, VT, USA) at a wavelength of 570 nm. Each cytotoxicity assay was repeated three times in triplicates.
Background: Formazan colour is commonly taken as a measure of viable cells.

Series [1] has as its system NCI-H1563 lung cancer cell line. Put plainly: MTT cytotoxicity assay. Format: cell-based, human. Particulars: 48 h treatment. The protocol: as §1, §2, §3, §4
Series [2] deals with DU-145 prostate cancer cell line. Put plainly: MTT cytotoxicity assay. The class given is cell-based, human. Particulars: 48 h treatment. The protocol: as §1, §2, §3, §4
For a further series, the system named is G-361 melanoma cell line. Briefly: MTT cytotoxicity assay. Particulars: MTT, 48 h treatment. The class given is cell-based, human. Here is the method:
as §1, §2, §3, §4

Another series concerns A375 melanoma cell line. Briefly: MTT cytotoxicity assay. Particulars: 48 h treatment. Format: cell-based, human. The protocol: as §1, §2, §3, §4
The subject of series [3] is PC-3 prostate cancer cell line. Put plainly: MTT cytotoxicity assay. The class given is cell-based, human. Particulars: 48 h treatment. Here is the method: as §1, §2, §3, §4
In series [4] the test system is LNCaP prostate cancer cell line. Put plainly: MTT cytotoxicity assay. The class given is cell-based, human. Particulars: MTT, 48 h treatment. Here is the method: as §1, §2, §3, §4
Series [5] concerns SK-MEL28 melanoma cell line. Briefly: MTT cytotoxicity assay. The note with it: 48 h treatment. The class given is cell-based, human. The protocol: as §1, §2, §3, §4
The test system of series [6] is MDA-MB-231 breast cancer cell line. Put plainly: MTT cytotoxicity assay. Format: cell-based, human. The note with it: 48 h treatment. The protocol:
as §1, §2, §3, §4

Series [7] has as its system MCF-7 breast cancer cell line. Put plainly: MTT cytotoxicity assay. The note with it: 48 h treatment. Format: cell-based, human. Here is the method:
as §1, §2, §3, §4

Series [8] deals with tested cancer cell lines (PC-3, DU-145, LNCaP, SK-MEL28, A375, G-361, MCF-7, MDA-MB-231, NCI-H1563). Briefly: MTT cytotoxicity assay, panel of nine cancer cell lines as a whole. The class given is cell-based, human. The protocol: as §1
The research was conducted on one primary cell line: BJ (fibroblast) and four types of cancerous ones: three prostate cancer cell lines (PC-3, DU-145, LNCaP); 3 Melanoma cell lines (MEL-28, A375, G-361); 2 breast cancer cell lines (MCF-7, MDA-MB-23) and one lung cancer cell line (NCI-H1563). […]
The cytotoxic analysis of thiosemicarbazides (TSC) (AB1–AB6) and semicarbazides (SC) (AB7–AB12) was conducted in various concentrations. […] IC50 values were determined using the AAT Bioquest IC50 calculator (AAT Bioquest, Inc., Pleasanton, CA, USA, Quest Graph™ EC50 Calculator. https://www.aatbio.com/tools/ec50-calculator) (accessed on 7 October 2024).
The cytotoxic activity of the thiosemicarbazides and semicarbazides was measured using the MTT colorimetric assay (MTT Cell Proliferation Assay Kit—Invitrogen, Waltham, MA, USA). […] The absorbance value of obtained solutions was measured using a PowerWave ™ microplate spectrophotometer (Bio-Tek Instruments, Winooski, VT, USA) at a wavelength of 570 nm. […]

Another series deals with zebrafish embryos. Further details: method as in PMID 36436567. The note with it: cited from earlier work.
For another series, the system named is G-361 melanoma cells. Further details: method as in PMID 35204651. The note with it: cited from earlier work.
Details of series [9]: method as in PMID 14912098. Particulars: as toxic as thiosemicarbazide; cited from earlier work.

Usually IC50 stands for the concentration that inhibits the measured activity by half. Regarding `O=C(COc1ccc(F)cc1)NNC(=S)Nc1ccc(Cl)cc1` [AB4], the IC50 with BJ fibroblasts turned out to be 313 µM; in series [1], 293 µM; in [2] it was 297 µM; with G-361 melanoma cell line, 265 µM; in the series on A375 melanoma cell line, 399 µM; in series [3] it was 355 µM. Moreover, the IC50 came to 257 µM in series [4], 322 µM in series [5], 421 µM in series [6] and 343 µM in series [7].
Turning to `O=C(COc1ccc(F)cc1)NNC(=S)Nc1ccc(Cl)c(Cl)c1` [AB6], the “selectivity index (SI)” value in [8] (IC50 normal cells (BJ) divided by IC50 cancer cells, cell line not specified) is on record as below 1. The IC50 with BJ fibroblasts is below 100 µM; in series [1] it was 242 µM; in series [2], 343 µM; with G-361 melanoma cell line, 210 µM; in the series with A375 melanoma cell line, 257 µM; in series [3] it was 388 µM. Further, the IC50 in series [4] was 121 µM; in [5] it was 195 µM; in series [6], 334 µM; in series [7] it was 240 µM.
In the case of `O=C(COc1ccc(F)cc1)NNC(=S)Nc1ccccc1` [AB1], the IC50 in series [8] (MTT, 48 h, thiosemicarbazides tested 500 to 100 μM, semicarbazides 100 μM to 1 μM, read-out: IC50 in the tested cancer cell lines (stated for the panel)) was above 500 µM; with BJ fibroblasts, 498 µM; in [1], above 500 µM; in [2], above 500 µM; in the series with G-361 melanoma cell line it was 369 µM; in the series on A375 melanoma cell line it was above 500 µM. The IC50 is above 500 µM in [3]; 252 µM in [4]; above 500 µM in series [5]; above 500 µM in series [6]; above 500 µM in [7].
`N.N.[Cl][Pt][Cl]` [Cisplatin, reference compound]: the IC50 in series [1] turned out to be 2.78 µM; in series [2], 64.1 µM; with G-361 melanoma cell line, 12.5 µM; with A375 melanoma cell line it was 18.2 µM; in series [3], 52.2 µM; in series [4], 31.5 µM. In addition, the IC50 was 25.8 µM in [5], 38.7 µM in series [6] and 22.6 µM in series [7].
For the compound `CCCCCCNC(=O)NNC(=O)Cc1ccc([N+](=O)[O-])cc1` [1-[(4-nitrophenyl)acetyl]-4-hexylsemicarbazide], the “morphological abnormalities, including cardiotoxicity” value with zebrafish embryos is “do not cause morphological abnormalities, including cardiotoxicity”.
On to `O=C(COc1ccc(F)cc1)NNC(=S)Nc1cccc(Cl)c1` [AB3], for which the half-inhibitory concentration (IC50) worked out at 422 µM in the series on BJ fibroblasts; 437 µM in series [1]; 268 µM in series [2]; 248 µM in the series on G-361 melanoma cell line; 400 µM in the series on A375 melanoma cell line; 467 µM in [3]. The IC50 in series [4] stood at 175 µM; in series [5], 302 µM; in series [6], 495 µM; in series [7], 456 µM.
On to `CSc1ccc(NC(=S)NNC(=O)COc2ccc(Cl)cc2Cl)cc1` [PK2], for which the “population of cells in the sub-G1 phase” value in the series on G-361 melanoma cells is reported as “increase”.
For `CCNC(=O)NNC(=O)c1ccc([N+](=O)[O-])cc1` [1-(4-nitrobenzoyl)-4-ethylsemicarbazide], the “morphological abnormalities, including cardiotoxicity” value in the series on zebrafish embryos is on record as “do not cause morphological abnormalities, including cardiotoxicity”.
On to `O=C(COc1ccc(F)cc1)NNC(=S)Nc1ccc(Cl)cc1Cl` [AB5], for which the IC50 in the series on BJ fibroblasts was 303 µM; in [1], 372 µM; in [2], 401 µM; in the series with G-361 melanoma cell line, 276 µM; with A375 melanoma cell line, 384 µM; in [3], 395 µM. The IC50 in series [4] came out at 154 µM; in series [5], 297 µM; in series [6], 445 µM; in series [7], 421 µM.
Regarding `NNC(N)=O` [semicarbazide], the “toxicity relative to thiosemicarbazide” value in series [9] was “about 1/20”.
